Reference: US12516016B2, “GPX4 inhibitors, pharmaceutical compositions thereof, and their use for treating GPX4-mediated diseases” (EUBULUS BIOTHERAPEUTICS (HONG KONG) LIMITED, priority 2020, dated 2026)

Tested on: hepatocellular carcinoma cell line Hub-7
Assay: Cell proliferation assay (CELL-TITER GLO cell viability)
Type: cell-based
Settings: 24 h, Hub-7 cells, 24 h incubation, read-out: Inhibition of Cell Proliferation EC50
How it was run: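 […] cells (4,000/well) seeded overnight, then exposed 24 h to compound from 10 μM in 3-fold serial dilutions. Viability read by CELL-TITER GLO luminescence; EC50 values derived.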

C#CC(=O)N(c1cccc(-c2cc[nH]n2)c1)C(C(=O)NCc1ccccc1)c1ccccc1 (stereo not drawn) [A134, N-(3-(1H-Pyrazol-3-yl)phenyl)-N-(2-(benzylamino)-2-oxo-1-phenylethyl)-propiolamide] and C#CC(=O)N(c1ccc2c(c1)C(=O)OC2)C(C(=O)NCc1ccccc1)c1ccccc1 (stereo not drawn) [A143, N-(2-(Benzylamino)-2-oxo-1-phenylethyl)-N-(3-oxo-1,3-dihydroisobenzofuran-5-yl)propiolamide] cannot be ordered by EC50: ≤ 100 nM for the first, ≤ 100 nM for the second.

C#CC(=O)N(c1cccc(-c2cc[nH]n2)c1)C1(C(=O)NCc2ccccc2)CCOCC1 [A135, 4-(N-(3-(1H-Pyrazol-3-yl)phenyl)propiolamido)-N-benzyltetrahydro-2H-pyran-4-carboxamide] and C#CC(=O)N(c1cccc(-c2ccn(C)n2)c1)C1(C(=O)NCc2ccccc2)CCOCC1 [A136, N-Benzyl-4-(N-(3-(1-methyl-1H-pyrazol-3-yl)phenyl)propiolamido)tetrahydro-2H-pyran-4-carboxamide] fall in the same range of EC50: 100 to 500 nM for the first, 100 to 500 nM for the second.

First: C#CC(=O)N(Cc1cc[nH]n1)C1(C(=O)NCc2ccccc2)CCOCC1 [A137, 4-(N-((1H-Pyrazol-3-yl)methyl)propiolamido)-N-benzyltetrahydro-2H-pyran-4-carboxamide]
Second: C#CC(=O)N(Cc1cccc(O)c1)C1(C(=O)NCc2ccccc2)CCOCC1 [A138, N-Benzyl-4-(N-(3-hydroxybenzyl)propiolamido)tetrahydro-2H-pyran-4-carboxamide]
The EC50 of the first is higher: > 10000 nM for the first, ≤ 100 nM for the second.

C#CC(=O)N(c1ccccc1N1CCOCC1)C1(C(=O)NCc2ccccc2)CCOCC1 [A139, N-Benzyl-4-(N-(2-morpholinophenyl)propiolamido)tetrahydro-2H-pyran-4-carboxamide] and C#CC(=O)N(c1cccc2c1OCO2)C1(C(=O)NCc2ccccc2)CCOCC1 [A141, 4-(N-(Benzo[d][1,3]dioxol-4-yl)propiolamido)-N-benzyltetrahydro-2H-pyran-4-carboxamide] cannot be ordered by EC50: ≤ 100 nM for the first, ≤ 100 nM for the second.

C#CC(=O)N(c1ccc(N(C)C)cc1)C1(C(=O)NCc2ccccc2)CCOCC1 [A140, N-Benzyl-4-(N-(4-(dimethylamino)phenyl)propiolamido)tetrahydro-2H-pyran-4-carboxamide] and C#CC(=O)N(c1ccc2c(ccn2C)c1)C1(C(=O)NCc2ccccc2)CCOCC1 [A153, N-Benzyl-4-(N-(1-methyl-1H-indol-5-yl)propiolamido)tetrahydro-2H-pyran-4-carboxamide] cannot be ordered by EC50: 100 to 500 nM for the first, ≤ 100 nM for the second.

C#CC(=O)N(c1cccc(Cl)c1)C(C(=O)NCC1CC1)c1ccccc1 (stereo not drawn) [A142, N-(3-Chlorophenyl)-N-(2-((cyclopropylmethyl)amino)-2-oxo-1-phenylethyl)-propiolamide] and C#CC(=O)N(c1cc(Cl)ccc1Cl)C(C(=O)NCc1ccccc1)c1ccccc1 (stereo not drawn) [A145, N-(2-(Benzylamino)-2-oxo-1-phenylethyl)-N-(2,5-dichlorophenyl)propiolamide] cannot be ordered by EC50: ≤ 100 nM for the first, ≤ 100 nM for the second.

C#CC(=O)N(C1(C(=O)NCc2ccccc2)CCOCC1)C1(c2ccccc2)CC1 [A144, N-Benzyl-4-(N-(1-phenylcyclopropyl)propiolamido)tetrahydro-2H-pyran-4-carboxamide] and C#CC(=O)N(c1cccc2c1CCC2=O)C1(C(=O)NCc2ccccc2)CCOCC1 [A148, N-Benzyl-4-(N-(1-oxo-2,3-dihydro-1H-inden-4-yl)propiolamido)tetrahydro-2H-pyran-4-carboxamide] cannot be ordered by EC50: ≤ 100 nM for the first, ≤ 100 nM for the second.

C#CC(=O)N(c1cc2c(cc1I)OCO2)C(C(=O)NCc1ccccc1)c1ccccc1 (stereo not drawn) [A146, N-(2-(Benzylamino)-2-oxo-1-phenylethyl)-N-(6-iodobenzo[d][1,3]dioxol-5-yl)-propiolamide] and C#CC(=O)N(c1cccc2cnn(C)c12)C(C(=O)NCc1ccccc1)c1ccccc1 (stereo not drawn) [A160, N-(2-(Benzylamino)-2-oxo-1-phenylethyl)-N-(1-methyl-1H-indazol-7-yl)propiolamide] cannot be ordered by EC50: ≤ 100 nM for the first, ≤ 100 nM for the second.

First: C#CC(=O)N(c1cccn2cnnc12)C(C(=O)NCc1ccccc1)c1ccccc1 (stereo not drawn) [A147, N-([1,2,4]Triazolo[4,3-a]pyridin-8-yl)-N-(2-(benzylamino)-2-oxo-1-phenylethyl)-propiolamide]
Second: C#CC(=O)N(C1CCC(=O)N(C)C1)C(C(=O)NCc1ccccc1)c1ccccc1 (stereo not drawn) [A158, N-(2-(Benzylamino)-2-oxo-1-phenylethyl)-N-(1-methyl-6-oxopiperidin-3-yl)-propiolamide]
The EC50 of the first is lower: 100 to 500 nM for the first, 2000 to 10000 nM for the second. The first is the more potent here.

C#CC(=O)N(c1ccc2c(c1)C(=O)OC2)C1(C(=O)NCc2ccccc2)CCOCC1 [A149, N-Benzyl-4-(N-(3-oxo-1,3-dihydroisobenzofuran-5-yl)propiolamido)tetrahydro-2H-pyran-4-carboxamide] and C#CC(=O)N(c1ccc2c(c1)OCO2)C1(C(=O)NCc2ccccc2)CCOCC1 [A151, 4-(N-(Benzo[d][1,3]dioxol-5-yl)propiolamido)-N-benzyltetrahydro-2H-pyran-4-carboxamide] cannot be ordered by EC50: ≤ 100 nM for the first, 100 to 500 nM for the second.

Compared with C#CC(=O)N(c1ccc2[nH]ncc2c1)C1(C(=O)NCc2ccccc2)CCOCC1 [A150, 4-(N-(1H-Indazol-5-yl)propiolamido)-N-benzyltetrahydro-2H-pyran-4-carboxamide], C#CC(=O)N(c1ccc2[nH]ccc2c1)C1(C(=O)NCc2ccccc2)CCOCC1 [A152, 4-(N-(1H-Indol-5-yl)propiolamido)-N-benzyltetrahydro-2H-pyran-4-carboxamide] is higher in EC50: 100 to 500 nM for the first, 2000 to 10000 nM for the second. The first is the more potent here.

C#CC(=O)N(c1ccc2ncn(C)c2c1)C1(C(=O)NCc2ccccc2)CCOCC1 [A154, N-Benzyl-4-(N-(1-methyl-1H-benzo[d]imidazol-6-yl)propiolamido)tetrahydro-2H-pyran-4-carboxamide] and C#CC(=O)N(c1ccc2c(c1)ncn2C)C1(C(=O)NCc2ccccc2)CCOCC1 [A156, N-Benzyl-4-(N-(1-methyl-1H-benzo[d]imidazol-5-yl)propiolamido)tetrahydro-2H-pyran-4-carboxamide] fall in the same range of EC50: 500 to 2000 nM for the first, 500 to 2000 nM for the second.

C#CC(=O)N(c1ccc2scnc2c1)C1(C(=O)NCc2ccccc2)CCOCC1 [A155, 4-(N-(Benzo[d]thiazol-5-yl)propiolamido)-N-benzyltetrahydro-2H-pyran-4-carboxamide] and C#CC(=O)N(c1ccc2c(cnn2C)c1)C1(C(=O)NCc2ccccc2)CCOCC1 [A162, N-Benzyl-4-(N-(1-methyl-1H-indazol-5-yl)propiolamido)tetrahydro-2H-pyran-4-carboxamide] cannot be ordered by EC50: 100 to 500 nM for the first, ≤ 100 nM for the second.

C#CC(=O)N(c1ccc(OC)cc1OC)C1(C(=O)NCc2ccccc2)CCOCC1 [A157, N-Benzyl-4-(N-(2,4-dimethoxyphenyl)propiolamido)tetrahydro-2H-pyran-4-carboxamide] and C#CC(=O)N(c1cccc2nsnc12)C1(C(=O)NCc2ccccc2)CCOCC1 [A161, 4-(N-(Benzo[c][1,2,5]thiadiazol-4-yl)propiolamido)-N-benzyltetrahydro-2H-pyran-4-carboxamide] cannot be ordered by EC50: ≤ 100 nM for the first, ≤ 100 nM for the second.

C#CC(=O)N(c1cccc(Cl)c1)C1(C(=O)NCS(=O)(=O)c2ccc(C)cc2)CCOCC1 [A159, 4-(N-(3-Chlorophenyl)propiolamido)-N-(tosylmethyl)tetrahydro-2H-pyran-4-carboxamide] and C#CC(=O)N(c1ccn2cnnc2c1)C1(C(=O)NCc2ccccc2)CCOCC1 [A163, 4-(N-([1,2,4]Triazolo[4,3-a]pyridin-7-yl)propiolamido)-N-benzyltetrahydro-2H-pyran-4-carboxamide] fall in the same range of EC50: 500 to 2000 nM for the first, 500 to 2000 nM for the second.
